Source: patent publication US9133115B2 (ACHILLION PHARMACEUTICALS, INC., priority 2008, dated 2015)
pEC50: −log10 of the molar value.

These compounds were tested on HCV replicon (assay: HCV replicon replication assay (NPT ELISA) in Huh-7 replicon-containing cells). Details: Hepatitis C virus, 72 h; HCV replicon in Huh-7 cells, three days incubation; read-out: EC50.
Assay type: cell-based
Procedure, shortened: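 Replication was scored by capture ELISA of neomycin phosphotransferase, whose level tracks replicon replication, after graded compound treatment. The cells were Huh-7 harbouring an HCV-IRES/neo/EMCV-IRES/NS3–NS5B/3′-NTR replicon, plated at 6000-7500 cells/well and dosed 24 h later at 60-70% confluence; interferon alpha was the positive control.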

C=C[C@@H]1C[C@]1(NC(=O)[C@@H]1C[C@@H](Oc2cc(-c3ccccc3)nc3cc(OC)ccc23)CN1C(=O)[C@@H](CC(=O)N1CCCCC1)C(C)(C)C)C(=O)NS(=O)(=O)C1(CC)CC1 [Compound 145, (2S,4R)-1-((S)-2-tert-butyl-4-oxo-4-(piperidin-1-yl)butanoyl)-N-((1R,2S)-1-(1-ethylcyclopropyl-sulfonylcarbamoyl)-2-vinylcyclopropyl)-4-(7-methoxy-2-phenylquinolin-4-yloxy)pyrrolidine-2-carboxamide] and C=C[C@@H]1C[C@]1(NC(=O)[C@@H]1C[C@@H](Oc2cc(-c3ccccc3)nc3cc(OC)ccc23)CN1C(=O)[C@@H](CC(=O)N1CCCCC1)C(C)(C)C)C(=O)NS(=O)(=O)C1(CCC)CC1 [Compound 146, (2S,4R)-1-((S)-2-tert-butyl-4-oxo-4-(piperidin-1-yl)butanoyl)-4-(7-methoxy-2-phenylquinolin-4-yloxy)-N-((1R,2S)-1-(1-propylcyclo-propylsulfonyl-carbamoyl)-2-vinyl-cyclopropyl)pyr-rolidine-2-carboxamide] cannot be ordered by pEC50: over 6.00 for the first, over 6.00 for the second.

First: C=C[C@@H]1C[C@]1(NC(=O)[C@@H]1C[C@@H](Oc2cc(-c3ccccc3)nc3cc(OC)ccc23)CN1C(=O)[C@@H](CC(=O)N1CCCCC1)C(C)(C)C)C(=O)NS(=O)(=O)C1(Cc2ccccc2)CC1 [Compound 147, (2S,4R)-N-((1R,2S)-1-(1-benzylcyclo-propylsulfonyl-carbamoyl)-2-vinyl-cyclopropyl)-1-((S)-2-tert-butyl-4-oxo-4-(piperidin-1-yl)butanoyl)-4-(7-methoxy-2-phenylquinolin-4-yloxy)pyrrolidine-2-carboxamide]
Second: C=CCC1(S(=O)(=O)NC(=O)[C@@]2(NC(=O)[C@@H]3C[C@@H](Oc4cc(-c5ccccc5)nc5cc(OC)ccc45)CN3C(=O)[C@@H](CC(=O)N3CCCCC3)C(C)(C)C)C[C@H]2C=C)CC1 [Compound 151]
The pEC50 of the first is lower: 5.00 to 6.00 for the first, over 6.00 for the second.

First: C=C[C@@H]1C[C@]1(NC(=O)[C@@H]1C[C@@H](Oc2cc(-c3ccccn3)c3ccc(OC)c(Cl)c3n2)CN1C(=O)[C@@H](CC(=O)N1CCCCC1)C(C)(C)C)C(=O)NS(=O)(=O)C1CC1 [Compound 148, (2S,4R)-1-((S)-2-tert-butyl-4-oxo-4-(piperidin-1-yl)butanoyl)-4-(8-chloro-7-methoxy-4-(pyridin-2-yl)quinolin-2-yloxy)-N-((1R,2S)-1-(cyclopropyl-sulfonylcarbamoyl)-2-vinyl-cyclopropyl)pyr-rolidine-2-carboxamide]
Second: C=C[C@@H]1C[C@]1(NC(=O)[C@@H]1C[C@@H](Oc2cc(-c3ccccn3)c3ccc4c(c3n2)CCO4)CN1C(=O)[C@@H](CC(=O)N1CCCCC1)C(C)(C)C)C(=O)NS(=O)(=O)C1CC1 [Compound 150, (2S,4R)-1-((S)-2-tert-butyl-4-oxo-4-(piperidin-1-yl)butanoyl)-N-((1R,2S)-1-(cyclo-propylsulfonyl-carbamoyl)-2-vinylcyclopropyl)-4-(4-(pyridin-2-yl)-8,9-dihydrofuro[2,3-h]quinolin-2-yloxy)pyrrolidine-2-carboxamide]
The pEC50 of the first is lower: 5.00 to 6.00 for the first, over 6.00 for the second.

CC[C@@H]1C[C@]1(NC(=O)[C@@H]1C[C@@H](Oc2cc(-c3ccccc3)nc3cc(OC)ccc23)CN1C(=O)[C@@H](CC(=O)N1CCCCC1)C(C)(C)C)C(=O)NS(=O)(=O)C1CC1 [Compound 149, (2S,4R)-1-((S)-2-tert-butyl-4-oxo-4-(piperidin-1-yl)butanoyl)-N-((1R,2R)-1-(cyclo-propylsulfonyl-carbamoyl)-2-ethylcyclopropyl)-4-(7-methoxy-2-phenylquinolin-4-yloxy)pyrrolidine-2-carboxamide] and C=C[C@@H]1C[C@]1(NC(=O)[C@@H]1C[C@@H](Oc2cc(-c3ccccc3)nc3cc(OC)ccc23)CN1C(=O)[C@@H](CC(=O)N1CCCCC1)C(C)(C)C)C(=O)NS(=O)(=O)C1(Cl)CC1 [Compound 158, (2S,4R)-1-((S)-2-tert-butyl-4-oxo-4-(piperidin-1-yl)butanoyl)-N-((1R,2S)-1-(1-chlorocyclopropyl-sulfonyl-carbamoyl)-2-vinylcyclopropyl)-4-(7-methoxy-2-phenylquinolin-4-yloxy)pyrrolidine-2-carboxamide] cannot be ordered by pEC50: over 6.00 for the first, over 6.00 for the second.

C=C[C@@H]1C[C@]1(NC(=O)[C@@H]1C[C@@H](Oc2cc(-c3ccccn3)nc3c4c(ccc23)OCC4)CN1C(=O)[C@@H](CC(=O)N1CCCCC1)C(C)(C)C)C(=O)NS(=O)(=O)C1CC1 [Compound 152, (2S,4R)-1-((S)-2-tert-butyl-4-oxo-4-(piperidin-1-yl)butanoyl)-N-((1R,2S)-1-(cyclo-propylsulfonyl-carbamoyl)-2-vinylcyclopropyl)-4-(2-(pyridin-2-yl)-8,9-dihydrofuro[2,3-h]quinolin-4-yloxy)pyrrolidine-2-carboxamide] and C=C[C@@H]1C[C@]1(NC(=O)[C@@H]1C[C@@H](Oc2cc(-c3ccccn3)nc3c4c(ccc23)OCC4)CN1C(=O)[C@@H](CC(=O)N1CCOCC1)C(C)(C)C)C(=O)NS(=O)(=O)C1CC1 [Compound 153, (2S,4R)-1-((S)-2-tert-butyl-4-morpholino-4-oxobutanoyl)-N-((1R,2S)-1-(cyclo-propylsulfonyl-carbamoyl)-2-vinylcyclopropyl)-4-(2-(pyridin-2-yl)-8,9-dihydrofuro[2,3-h]quinolin-4-yloxy)pyrrolidine-2-carboxamide] cannot be ordered by pEC50: over 6.00 for the first, over 6.00 for the second.

First: C=C[C@@H]1C[C@]1(NC(=O)[C@@H]1C[C@@H](OC(=O)N2c3ccccc3Oc3ccccc32)CN1C(=O)[C@@H](CC(=O)N1CCCCC1)C(C)(C)C)C(=O)NS(=O)(=O)C1CC1 [Compound 154, (3R,5S)-1-((S)-2-tert-butyl-4-oxo-4-(piperidin-1-yl)butanoyl)-5-((1R,2S)-1-(cyclo-propylsulfonyl-carbamoyl)-2-vinyl-cyclopropyl-carbamoyl)pyrrolidin-3-yl 10H-phenoxazine-10-carboxylate]
Second: C=C[C@@H]1C[C@]1(NC(=O)[C@@H]1C[C@@H](OC(=O)n2c3ccc(Cl)cc3c3cc(Cl)ccc32)CN1C(=O)[C@@H](CC(=O)N1CCCCC1)C(C)(C)C)C(=O)NS(=O)(=O)C1CC1 [Compound 155, (3R,5S)-1-((S)-2-tert-butyl-4-oxo-4-(piperidin-1-yl)butanoyl)-5-((1R,2S)-1-(cyclo-propylsulfonyl-carbamoyl)-2-vinyl-cyclopropyl-carbamoyl)pyrrolidin-3-yl 3,6-dichloro-9H-carbazole-9-carboxylate]
The pEC50 of the first is lower: 5.00 to 6.00 for the first, over 6.00 for the second. The second is the more potent here.

C=CC1C[C@]1(NC(=O)[C@@H]1C[C@@H](Oc2cc(-c3ccccc3)nc3cc(OC)ccc23)CN1C(=O)[C@@H](CC(=O)N1CCCC(C(=O)N(CC)CC)C1)C(C)(C)C)C(=O)NS(=O)(=O)C1CC1 (stereo partly drawn) [Compound 159, 1-((S)-3-((2S,4R)-2-((1R,2S)-1-(cyclo-propylsulfonyl-carbamoyl)-2-vinyl-cyclopropyl-carbamoyl)-4-(7-methoxy-2-phenylquinolin-4-yloxy)pyrrolidine-1-carbonyl)-4,4-dimethylpentanoyl)-N,N-diethylpiper-idine-3-carboxamide] gave a pEC50 of over 6.00.
